What was measured:
mAb SH2 [1] = assay: Indirect titration ELISA of SH2 ascites against coated glycoconjugates; format: binding, mouse
Description: MaxiSorp NUNC 96-well enzyme-linked immunosorbent assay (ELISA) microtiter plate (Thermo Fisher Scientific) was coated with a dilution of glycoconjugates 1–5 and BSA (100 μL per well, […]) in a 10 mM phosphate-buffered saline (PBS) solution at pH 7.1. The plate was covered with sealing tape and incubated at 4 °C overnight. The antigen solution was discarded, and the plate was washed (using ELx405 auto plate washer, 5 × 15 s) with a 10 mM PBS buffer at pH 7.3 containing 0.05% Tween 20. The plate was blocked with 0.05% skim milk in 10 mM PBS (300 μL per well) and incubated for 1 h at 37 °C. The plate was then washed with 10 mM PBS-0.05% Tween 20. A 1:100 dilution of SH2 ascites was prepared and 146 μL of the dilution was distributed in the wells corresponding to the primary dilution. All other wells received 100 μL of the 10 mM PBS-0.05% Tween 20 pH 7.3 buffer. In-plate serial dilutions were performed in which 46 μL of the primary dilution was pipetted downward along the rows. The well contents were mixed by rinsing the pipette tips (7×). Lastly, 46 μL of the mAb solution was removed and discarded from the wells, which received the final solution of mAb (final volume in all wells, 100 μL). The last row of the 96-well plate was used as the blank control. MAb SH2 ascites were not pipetted into these wells, rather 100 μL of 10 mM PBS-0.05% Tween 20 was added. The plate was incubated for 2 h at 23 °C (in the dark). The plate was subsequently washed using the plate washer with PBS-0.05% Tween 20. A dilution of commercially available horseradish peroxidase labeled goat anti-mouse antibody (Mandel Scientific) (1:5000 in 10 mM PBS-0.05% Tween 20, 100 μL per well) was added to each well. After 1 h of incubation at 23 °C (in the dark), the plate was washed with PBS-0.05% Tween 20. A solution of the chromogenic substrate 3,3′,5,5′-tetramethylbenzidine (TMB) (Mandel Scientific) (100 μL per well) was added. After a 10 min incubation period at 23 °C (in the dark), 100 μL of 5% Phosphoric Acid stop solution was added to the wells to quench the reaction. The absorbance values were read at 450 nm employing a PowerWave XS plate reader. All samples were prepared in triplicate. The absorbance values were plotted against an increasing serum dilution. The values were fitted to a 4-parameter logistics sigmoidal equation: y = y0 + a/[1 + (x/x0)^b] using Sigma Plot®® 10.0.

mAb SH2 [2] = assay: Competitive ELISA: inhibition of mAb SH2 binding to immobilized (DimLe^x)16-BSA conjugate 1; set-up: species or system mouse; conditions: (DimLe^x)16-BSA 1 immobilized; SH2 serum dilution 1:500 (Figure 5)
Description: A MaxiSorp NUNC 96-well ELISA microtiter plate was coated with a dilution of the (DimLe^x)16-BSA conjugate 1 (100 μL per well, 5 μg/mL) in a 10 mM PBS solution at pH 7.1. The plate was covered with sealing tape and incubated at 4 °C overnight. The antigen solution was discarded, and the plate was washed (using ELx405 auto plate washer, 5 × 15 s) with a 10 mM PBS buffer at pH 7.3 containing 0.05% Tween 20. In 1.5 mL Eppendorf tubes, 175 μL dilutions of competitors (concentration ranging from 0.632 mg/mL to 2 mg/mL in 10 mM PBS-0.05% Tween 20) were incubated for 1 h at 23 °C (in the dark) with 175 μL of a solution of SH2 ascites (1:500 dilution in 10 mM PBS-0.05% Tween 20). At the same time, the plate was blocked with 0.05% skim milk in PBS (300 μL per well). After 1 h of incubation at 37 °C, the plate was washed with 10 mM PBS-0.05% Tween 20. Each well then received 100 μL of the competitor-mAb mixture. Three wells were used as the blank control in which the competitor-mAb mixture was not added, rather received 100 μL of 10 mM PBS-0.05% Tween 20. The plate was incubated for 3 h at 23 °C (in the dark). The plate was subsequently washed using the plate washer with PBS-0.05% Tween 20. A dilution of commercially available horseradish peroxidase labeled goat anti-mouse antibody (1:5000 in 10 mM PBS-0.05% Tween 20, 100 μL per well) was added to each well. After 1 h of incubation at 23 °C (in the dark), the plate was washed with 10 mM PBS-0.05% Tween 20. A solution of the chromogenic substrate TMB (100 μL per well) was added. After a 10 min incubation period at 23 °C (in the dark), 100 μL of 5% Phosphoric Acid stop solution was added to the wells to quench the reaction. The absorbance values were read at 450 nm employing a PowerWave XS plate reader. All samples were prepared in triplicate. The absorbance values were plotted as the percentage inhibition against an increasing concentration of competitor, calculated using wells containing no competitor as the reference point. The values were fitted to a 4-parameter logistics sigmoidal equation: y = y0 + a/[1 + (x/x0)^b] using Sigma Plot 10.0. The concentration of each analogue required for 50% inhibition (IC50) of Le^x-SH2 binding and the corresponding changes in free energy Δ(ΔG) of binding (kcal·mol^−1) using DimLe^xOPr 6 (Table 1) or Le^xOMe 7 (Table 2) as the reference were calculated.

## (DimLe^x)16-BSA [compound 1]
mAb SH2 [1]; coating with 3 µg/mL of the conjugate (Figure S1)
  Titration curve of SH2 (in words): did not reach maximum optical density
mAb SH2 [2]
  Inhibition of SH2 binding to (DimLe^x)16-BSA by glycoconjugates as soluble inhibitors (in words): able to inhibit binding

## (Le^x)10-BSA [compound 3]
mAb SH2 [1]; antigens coated at 10 μg/mL, 2 and 5 also at 20 µg/mL (not shown)
  Binding of SH2 to coated antigen (titration, in words): no binding
mAb SH2 [2]
  Inhibition of SH2 binding to (DimLe^x)16-BSA by glycoconjugates as soluble inhibitors (in words): did not

Reference: paper PMC7563222, “Recognition of Dimeric Lewis X by Anti-Dimeric Le^x Antibody SH2” (Vaccines, 2020)
